Test results as given in patent US10245249B2, “Pharmaceutical compositions comprising nitroxyl donors” (Cardioxyl Pharmaceuticals, Inc., priority 2013, dated 2019).

Experiment: HNO production determined via N2O quantification (GC headspace analysis)
Assay type: physicochemical
Details: PBS, 37° C., 90 minutes incubation
From the text: Nitrous oxide (N2O) is produced via the dimerization and dehydration of HNO, and is the most common marker for nitroxyl production (Fukuto et al., Chem. Res. Toxicol. 18:790-801 (2005)). […] Using either nitrous oxide gas or Angeli's salt (AS) as a standard, the relative amounts of N2O released from compounds of the disclosure was examined via gas chromatography (GC) headspace analysis.
A procedure for determining the relative amounts of N2O released from compounds of the disclosure is as follows. GC was performed on an Agilent gas chromatograph equipped with a split injector (10:1 splitting), microelectron capture detector, and a HP-MOLSIV 30 m×0.32 mm×25 μm molecular sieve capillary column. Helium was used as the carrier (4 mL/min) gas and nitrogen was used as the make-up (20 mL/min) gas. The injector oven and the detector oven were kept at 200° C. and 325° C., respectively. All nitrous oxide analyses were performed with the column oven held at a constant temperature of 200° C.
All gas injections were made using an automated headspace analyzer. Vial pressurization was 15 psi. The analyzer's sample oven, sampling valve, and transfer line were kept at 40° C., 45° C., and 50° C., respectively. The oven stabilization, vial pressurization, loop fill, loop equilibration, and sample injection times were 1.00 min., 0.20 min., 0.20 min., 0.05 min., and 1.00 min., respectively.
All determinations used a batch of nominal 20 mL headspace vials with volumes pre-measured for sample uniformity (actual vial volume varied by <2.0% relative standard deviation (n=6)). The average vial volume for the batch was determined from six randomly-selected vials by calculating the weight difference between the capped and sealed empty (i.e., air-filled) vial and the capped and sealed deionized water-filled vial using the known density of deionized water, then averaging. Blanks were prepared by sealing and capping two vials then purging each for 20 seconds with a gentle argon stream. Nitroxyl standards were prepared by sealing and capping four vials then purging each for 1 minute with a gentle stream, from a gas cylinder, of a 3000 ppm […].
CXL-1020 (N-hydroxy-2-methanesulfonylbenzene-1-sulfonamide) “standards” were prepared by, in duplicate, accurately weighing 10±0.5 mg of CXL-1020 and adding it to each 4 mL vial. Using an auto pipette, 1 mL of argon-purged anhydrous DMF (Sigma-Aldrich) was added to each 4 mL vial to form a CXL-1020 stock solution for each sample and the vials were capped and shaken and/or sonicated to insure complete dissolution upon visual observation. Using an auto pipette, 20 mL vials were charged with 5 mL of PBS (purged for at least 30 min. with argon prior to use), purged with argon for at least 20 sec., and sealed with a rubber septum. Using a 50 μL syringe, 50 μL of the CXL-1020 stock solution was injected into each 20 mL vial containing the PBS.
Samples were prepared as follows. In duplicate, 18±1 mg of each sample was accurately weighed into each 4 mL vial. Using an auto pipette, 1 mL of argon-purged anhydrous DMF was added to each 4 mL vial to form a sample stock solution for each sample and the vials were capped and shaken and/or sonicated to insure complete sample dissolution upon visual observation. Using an auto pipette, 20 mL vials were charged with 5 mL of PBS (purged for at least 30 min. with argon prior to use), purged with argon for at least 20 sec., and sealed with a rubber septum. The vials were equilibrated for at least 10 min. at 37° C. in a dry block heater. Thereafter, using a 50 μL syringe, 50 μL of a sample stock solution was injected into each 20 mL vial containing the PBS. The vials were then held at 37° C. in the dry block heater for a time period such that the sum of the time spent in the dry block heater plus the time spent in the automated headspace analyzer oven before sample injection equaled the desired incubation time. […]

Structure (SMILES) | Relative N2O Yield (90 minutes incubation)
O=S(=O)(NO)c1coc2ccccc12 [Compound 6, N-Hydroxy-1-benzofuran-3-sulfonamide] | 85%
O=S(=O)(NO)c1ncccc1Br [Compound 33, 3-Bromo-N-hydroxypyridine-2-sulfonamide] | 85.5%
NS(=O)(=O)c1cc(S(=O)(=O)NO)cs1 [Compound 34, 4-N-Hydroxythiophene-2,4-disulfonamide] | 100%
O=S(=O)(NO)c1ccc(-c2cc(C(F)(F)F)on2)s1 [Compound 36, N-Hydroxy-5-[5-(trifluoromethyl)-1,2-oxazol-3-yl]thiophene-2-sulfonamide] | 51%
O=S(=O)(NO)C1=C(Cl)NC2SC=CN12 (centres unmarked) [Compound 37, 6-Chloro-N-hydroxy-7H,7aH-imidazo[2,1-b][1,3]thiazole-5-sulfonamide] | 51%
O=S(=O)(NO)c1ccc(-c2ccno2)s1 [Compound 38, N-Hydroxy-5-(1,2-oxazol-5-yl)thiophene-2-sulfonamide] | 25%
O=S(=O)(NO)c1ccc(-c2cnco2)s1 [Compound 40, N-Hydroxy-5-(1,3-oxazol-5-yl)thiophene-2-sulfonamide] | 50%
Cc1cc(S(=O)(=O)NO)c(C)s1 [Compound 41, N-Hydroxy-2,5-dimethylthiophene-3-sulfonamide] | 13%
COC(=O)c1cc(C)c(S(=O)(=O)NO)s1 [Compound 42, Methyl 5-(hydroxysulfamoyl)-4-methylthiophene-2-carboxylate] | 91%
O=S(=O)(NO)c1ccc(S(=O)(=O)c2ccccc2)s1 [Compound 43, 5-(Benzenesulfonyl)-N-hydroxythiophene-2-sulfonamide] | 82%
O=S(=O)(NO)c1ccc(-c2ccon2)s1 [Compound 44, N-Hydroxy-5-(1,2-oxazol-3-yl)thiophene-2-sulfonamide] | 81%
O=S(=O)(NO)c1ccc(Br)s1 [Compound 45, 5-Bromo-N-hydroxythiophene-2-sulfonamide] | 76%
O=S(=O)(NO)c1sc(Br)cc1Br [Compound 46, 3,5-Dibromo-N-hydroxythiophene-2-sulfonamide] | 95%
O=S(=O)(NO)c1sccc1Cl [Compound 48, 3-Chloro-N-hydroxythiophene-2-sulfonamide] | 82%
O=S(=O)(NO)c1c(Cl)ccc2nonc12 [Compound 50, 5-Chloro-N-hydroxy-2,1,3-benzoxadiazole-4-sulfonamide] | 31%
COc1ccc(S(=O)(=O)NO)cc1OC [Compound 52, N-Hydroxy-3,4-dimethoxybenzene-1-sulfonamide] | 11%
Cc1cc(C)c(C)c(S(=O)(=O)NO)c1C [Compound 53, N-Hydroxy-2,3,5,6-tetramethylbenzene-1-sulfonamide] | 70%
O=S(=O)(NO)c1cc(C(F)(F)F)cc(C(F)(F)F)c1 [Compound 54, N-Hydroxy-3,5-bis(trifluoromethyl)benzene-1-sulfonamide] | 2%
COC(=O)c1ccc(Cl)c(S(=O)(=O)NO)c1 [Compound 55, Methyl 4-chloro-3-(hydroxysulfamoyl)benzoate] | 87%

Structure (SMILES) | Relative N2O Yield (90 minutes incubation)
O=C(c1ccc(Cl)c(S(=O)(=O)NO)c1)N1CCC(=NO)CC1 [Compound 58, 2-Chloro-N-hydroxy-5-[4-(hydroxyimino)piperidine-1-carbonyl]benzene-1-sulfonamide] | 92%
COCCN(C)C(=O)c1ccc(Cl)c(S(=O)(=O)NO)c1 [Compound 59, 4-Chloro-3-(hydroxysulfamoyl)-N-(2-methoxyethyl)-N-methylbenzamide] | 82%
O=C(O)c1cc(S(=O)(=O)NO)ccc1O [Compound 60, 2-Hydroxy-5-(hydroxysulfamoyl)benzoic acid] | 9%
CN1CCOc2cc(S(=O)(=O)NO)ccc21 [Compound 61, N-Hydroxy-4-methyl-3,4-dihydro-2H-1,4-benzoxazine-7-sulfonamide] | 11%
O=S(=O)(NO)c1ccc(O)cc1Cl [Compound 62, 2-Chloro-N,4-dihydroxybenzene-1-sulfonamide] | 28%
CN(C)C(=O)c1cc(S(=O)(=O)NO)c(Cl)cc1O [Compound 64, 4-Chloro-2-hydroxy-5-(hydroxysulfamoyl)-N,N-dimethylbenzamide] | 36%
CN1CCc2cc(Cl)c(S(=O)(=O)NO)cc21 [Compound 65, 5-Chloro-N-hydroxy-1-methyl-2,3-dihydro-1H-indole-6-sulfonamide] | 71%
O=S(=O)(NO)c1cc(O)ccc1Cl [Compound 66, 2-Chloro-N,5-dihydroxybenzene-1-sulfonamide] | 80%
CN1CCc2cc(Br)c(S(=O)(=O)NO)cc21 [Compound 67, 5-Bromo-N-hydroxy-1-methyl-2,3-dihydro-1H-indole-6-sulfonamide] | 59%
COCc1ccc(Cl)c(S(=O)(=O)NO)c1 [Compound 68, 2-Chloro-N-hydroxy-5-(methoxymethyl)benzene-1-sulfonamide] | 86%
COC(=O)c1ccc(S(=O)(=O)NO)o1 [Compound 69, Methyl 5-(hydroxysulfamoyl)furan-2-carboxylate] | 100%
Cc1cc(S(=O)(=O)NO)c(C)o1 [Compound 70, N-Hydroxy-2,5-dimethylfuran-3-sulfonamide] | 6%
CCS(=O)(=O)c1ccccc1S(=O)(=O)NO [Compound 72, 2-(Ethanesulfonyl)-N-hydroxybenzene-1-sulfonamide] | 97%
CC(C)S(=O)(=O)c1ccccc1S(=O)(=O)NO [Compound 73, N-Hydroxy-2-(propane-2-sulfonyl)benzene-1-sulfonamide] | 97%
CC(=O)N1CCOc2ccc(S(=O)(=O)NO)cc21 [Compound 74, 4-Acetyl-N-hydroxy-3,4-dihydro-2H-1,4-benzoxazine-6-sulfonamide] | 17%
COC(=O)c1ccc(S(=O)(=O)NO)n1C [Compound 75, Methyl 5-(hydroxysulfamoyl)-1-methyl-1H-pyrrole-2-carboxylate] | 4%
CC(=O)Nc1ncc(S(=O)(=O)NO)s1 [Compound 76, N-[5-(Hydroxysulfamoyl)-1,3-thiazol-2-yl]acetamide] | 76%
Cc1oc(C)c(S(=O)(=O)NO)c1C(=O)N1CCOCC1 [Compound 77, N-Hydroxy-2,5-dimethyl-4-(morpholine-4-carbonyl)furan-3-sulfonamide] | 14%
CCOC(=O)c1coc(S(=O)(=O)NO)c1 [Compound 78, Ethyl 5-(hydroxysulfamoyl)furan-3-carboxylate] | 86%
